Experimental data reported in ChEMBL document CHEMBL1201862, “PubChem BioAssay data set” (2004).
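Cultured in 96-well plates, cells were exposed to test compound for 48 hours across five concentrations. Here, GI50 denotes the concentration required for 50% inhibition of growth.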 The source made the active and inactive calls. Cut-off read from the data, not from the text of the source: active = GI50 up to about 1.1 µM and inactive = higher.

Experiments:
Experiment in all cases: NCI tumour cell line growth inhibition, 48 h
[1] = test system: SF-539
[2] = test system: HCT-15
[3] = test system: EKVX
[4] = test system: HL-60
[5] = test system: SNB-75
[6] = test system: U-251
[7] = test system: SK-MEL-28
[8] = test system: SF-295
[9] = test system: UACC-257
[10] = test system: UACC-62
[11] = test system: OVCAR-8
[12] = test system: M14
[13] = test system: SK-OV-3
[14] = test system: OVCAR-4
[15] = test system: HOP-62
[16] = test system: ACHN
[17] = test system: NCI-H23
[18] = test system: TK-10
[19] = test system: HT-29
[20] = test system: MOLT-4
[21] = test system: SF-268
[22] = test system: NCI-H522
[23] = test system: DMS-273
[24] = test system: IGROV-1
[25] = test system: SN12C
[26] = test system: DMS-114
[27] = test system: OVCAR-5
[28] = test system: SW-620
[29] = test system: A498
[30] = test system: NCI-H226
[31] = test system: KM12
[32] = test system: SK-MEL-2
[33] = test system: Malme-3M
[34] = test system: HOP-18
[35] = test system: OVCAR-3
[36] = test system: LXFL 529
[37] = test system: RXF 631
[38] = test system: SK-MEL-5
[39] = test system: A549
[40] = test system: SR
[41] = test system: K562
[42] = test system: HCC 2998
[43] = test system: CAKI-1
[44] = test system: SNB-78
[45] = test system: DLD-1
[46] = test system: KM-20L2
[47] = test system: COLO 205
[48] = test system: CCRF-CEM
[49] = test system: UO-31
[50] = test system: HOP-92
[51] = test system: M19-MEL
[52] = test system: RPMI-8226
[53] = test system: 786-0
[54] = test system: HCT-116
[55] = test system: LOX IMVI
[56] = test system: SNB-19
[57] = test system: NCI-H460
[58] = test system: RXF 393
[59] = test system: XF498

Measured: GI50

CCOC(=O)Nc1ccc(S(=O)(=O)NCCCl)cc1.CCOC(=O)Nc1ccc(S(=O)(=O)NCCCl)cc1.O=C(O)c1ccc(/N=N/Cl)cc1O
> 100 µM: [2]
inactive: [1] > 100 µM | [3] > 100 µM | [4] > 100 µM | [5] > 100 µM | [6] > 100 µM | [7] > 100 µM | [8] > 100 µM | [9] > 100 µM | [10] > 100 µM | [11] > 100 µM | [12] > 100 µM | [13] > 100 µM | [14] > 100 µM | [15] > 100 µM | [16] > 100 µM | [17] > 100 µM | [18] > 100 µM | [19] > 100 µM | [20] > 100 µM | [21] > 100 µM | [22] > 100 µM | [23] > 100 µM | [24] > 100 µM | [25] > 100 µM | [26] > 100 µM | [27] > 100 µM | [28] > 100 µM | [29] > 100 µM | [30] > 100 µM | [31] > 100 µM | [32] > 100 µM | [33] > 100 µM | [34] > 100 µM | [35] > 100 µM | [36] > 100 µM | [37] > 100 µM | [38] > 100 µM | [39] > 100 µM | [40] > 100 µM | [41] > 100 µM | [42] > 100 µM | [43] > 100 µM | [44] > 100 µM | [45] > 100 µM | [46] > 100 µM | [47] > 100 µM | [48] > 100 µM | [49] > 100 µM | [50] > 100 µM | [51] > 100 µM

C=C1C(OC(=O)/C=C/c2ccccc2)CC(OC(C)=O)C2(C)C1CC1CC(OC(C)=O)C(C)=C(C(OC(C)=O)C2OC(C)=O)C1(C)C (centres undefined)
5.41 µM: [2]
inactive: [1] > 100 µM | [4] 2.07 µM | [5] > 100 µM | [6] > 100 µM | [8] > 100 µM | [10] > 100 µM | [11] > 100 µM | [12] > 100 µM | [52] 3.13 µM | [13] > 100 µM | [15] > 100 µM | [18] > 100 µM | [19] > 100 µM | [20] 4.61 µM | [21] > 100 µM | [53] > 100 µM | [22] > 100 µM | [23] 4.2 µM | [24] > 100 µM | [25] > 100 µM | [26] 5.97 µM | [27] > 100 µM | [28] > 100 µM | [54] 3.79 µM | [29] 31.6 µM | [30] > 100 µM | [55] > 100 µM | [31] 8.59 µM | [56] > 100 µM | [33] > 100 µM | [34] > 100 µM | [36] 8.36 µM | [37] > 100 µM | [38] 4.1 µM | [39] 5.45 µM | [40] 3.97 µM | [41] 5.25 µM | [42] 7.71 µM | [43] > 100 µM | [44] > 100 µM | [46] > 100 µM | [47] 34 µM | [48] 5.25 µM | [57] 6.67 µM | [49] > 100 µM | [50] > 100 µM | [51] > 100 µM

C[N+](C)(C)C1CC([N+](C)(C)C)C2c3ccccc3C21 (centres undefined)
inactive: [1] > 100 µM | [3] > 100 µM | [58] > 100 µM | [4] > 100 µM | [5] > 100 µM | [6] > 100 µM | [7] > 100 µM | [8] > 100 µM | [9] > 100 µM | [10] > 100 µM | [11] > 100 µM | [12] > 100 µM | [52] > 100 µM | [13] > 100 µM | [14] > 100 µM | [59] > 100 µM | [15] > 100 µM | [16] > 100 µM | [17] > 100 µM | [18] > 100 µM | [19] > 100 µM | [21] > 100 µM | [53] > 100 µM | [22] > 100 µM | [23] > 100 µM | [24] > 100 µM | [25] > 100 µM | [26] > 100 µM | [27] > 100 µM | [28] > 100 µM | [54] > 100 µM | [29] > 100 µM | [30] > 100 µM | [55] > 100 µM | [31] > 100 µM | [56] > 100 µM | [33] > 100 µM | [35] > 100 µM | [36] > 100 µM | [37] > 100 µM | [38] > 100 µM | [39] > 100 µM | [41] > 100 µM | [42] > 100 µM | [43] > 100 µM | [44] > 100 µM | [45] > 100 µM | [46] > 100 µM | [47] > 100 µM | [48] > 100 µM | [57] > 100 µM | [49] > 100 µM | [50] > 100 µM | [51] > 100 µM
> 100 µM: [2]
